According to patent US6627652B1, “Method of treatment with compounds having selective agonist-like activity on RXR retinoid receptors” (Allergan, Inc., priority 1993, dated 2003):
Converted amounts (≈) assume the structure as drawn. “Also recorded” adds a separate entry of the source. Read-outs that look alike come from different tables or passages of the source. Blank lines part the entries; values can stand above or below the compound they belong to.

Key:
[1] = pharmacokinetic study, concentration in maternal plasma and embryo of mice; type: in vivo; conditions: oral intubation, single dose of 10 mg/kg, FIG. 8
Protocol: FIG. 8 is a graph showing the concentration of compound AGN 191701 (Compound 1) in nanograms per ml, or nanograms per gram as indicated on the chart, in the plasma and embryo of mice at various times after oral intubation of a single dose of 10 mg/kg of the compound.

[2] = target: T1, chimeric RARβ receptor (Homo sapiens, UniProt P10826); assay: Cationic Liposome Mediated Transfection Assay (ERE-CAT reporter in HeLa cells), RARβ
T1 sequence (P10826 183-417 limits assumed): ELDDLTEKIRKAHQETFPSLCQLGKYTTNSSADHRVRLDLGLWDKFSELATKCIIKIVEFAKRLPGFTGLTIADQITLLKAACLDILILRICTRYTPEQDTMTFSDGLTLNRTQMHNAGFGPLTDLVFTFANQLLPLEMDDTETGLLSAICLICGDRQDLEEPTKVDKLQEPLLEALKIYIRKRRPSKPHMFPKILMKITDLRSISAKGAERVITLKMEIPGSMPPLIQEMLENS

[3] = system: human sebocyte cultures; assay: 3H-thymidine incorporation assay in human sebocyte cultures; type: cell-based; conditions: FIG. 3, 8 days of treatment
Protocol: An assay involving human sebocyte cultures measures the inhibition of ^3H-thymidine into cells, and thus measures inhibition of DNA synthesis and thus an anti-proliferative effect on sebocyte (i.e. a sebostatic effect). This assay is also considered a specific assay for effectiveness of a compound as a potential anti-acne drug. The test is conducted as follows. Face-lift or forehead reduction skins from cosmetic surgeries were used as sources of human sebaceous gland cells (sebocytes). Isolated sebocytes were plated in type 1 collagen coated-dishes in DMEM/F12 (1:1) medium supplemented with 8% fetal bovine serum, 2% human serum, 10 ng/ml epidermal growth factor, 1 nM cholera toxin, 1 μM hydrocortisone, and penicillin/streptomycin/amphotericin B. Secondary cultures were prepared by plating Dispase dissociated cells in collagen coated 24-well plates. […] DNA from the cells were extracted by thichoroacetic acid and perchloric acid, and assayed for radioactivity by scintillation counting and for content of DNA by the diphenylamine colorimetric method. The results were expressed as CPM/μg DNA, or as per cent of vehicle control which incorporated about 1,000-1,500 cpm/μg DNA.

[4] = target: T2, chimeric RARγ receptor (Homo sapiens, UniProt P13631); assay: Cationic Liposome Mediated Transfection Assay (ERE-CAT reporter in HeLa cells), RARγ
T2 sequence (P13631 185-419 limits assumed): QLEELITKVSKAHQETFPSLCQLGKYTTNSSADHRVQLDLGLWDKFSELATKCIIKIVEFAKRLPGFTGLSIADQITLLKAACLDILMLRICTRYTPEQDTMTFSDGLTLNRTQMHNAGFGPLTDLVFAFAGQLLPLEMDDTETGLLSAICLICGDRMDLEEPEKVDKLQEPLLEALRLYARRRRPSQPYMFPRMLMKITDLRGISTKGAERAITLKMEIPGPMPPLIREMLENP

[5] = system: limb bud mesenchymal cells; assay: inhibition of chondrogenesis in high-density spot cultures of limb bud mesenchymal cells; type: cell-based, mouse; conditions: for IC50: Mus musculus
Protocol: An in vitro bioassay which measures inhibition of chondrogenesis (bone formation) in chick embryo cells is considered a classic measure of teratogenecity. The assay is conducted as follows: High-density “spot” cultures of limb bud mesenchymal cells were used to compare the ability of various concentrations of test drugs to suppress chondrogenic differentiation as a bioassay. Forelimb buds of mouse embryos on day 12 of gestation (54±2 somites) were dissociated in a trypsin-EDTA solution, and the resultant single-cell suspension was plated as 20-μl spots (200,000 cells/spot) on plastic culture dishes. Retinoid concentrations ranging from 0.3 ng/ml to 3 μg/ml (1 nM-10 μM) were added to the culture medium (Eagle's MEM+10% fetal bovine serum, GIBCO) 24 hours after initial plating. Control cultures received only the vehicle (ethanol, concentration≦1% by vol); Retinoic acid was used as a positive control in another set of cultures. The cultures were terminated 96 hours after plating, at which time the medium was removed and the cells were fixed for 1 hour in 10% formalin containing 0.5% cetylpyridinium chloride. The cultures were rinsed in acetic acid and stained for 1 hour in 0.5% Alcian blue solution at pH 1.0, differentiated in 3% acetic acid, and then dehydrated in ethanol and scored for chondrogenesis under the microscope. An absence or reduction in the number of cartilage nodules in stained cultures as compared with control cultures was taken as a measure of suppression of chondrogenesis. The number of cartilage nodules stained in the whole spot, mean number of nodules, and standard deviations were calculated for four replicate cultures per treatment. The median concentration causing a 50% inhibition of chondrogenesis compared with controls (IC50) was calculated by logarithmic curve fitting of the dose-response data.

[6] = system: gestating ICR mice; assay: in vivo teratology study in gestating ICR mice; set-up: species or system mouse; conditions: for teratogenicity (in words): conclusion from Table 2
Protocol: The methodology of the study is described as follows: ICR mice (Ace Animals, Boyertown, Pa.) were used. Mature male and virgin female ICR mice were housed in environmentally controlled rooms and acclimatized to a 12 hour light/dark cycle (light cycle 6 A.M. to 6 P.M.) for 2 weeks prior to use. All animals were maintained on Purina Lab Chow and tap water ad libitum. A group of 3-4 females was caged with a single male of proven fertility for 4 hours. Presence of a vaginal plug immediately afterward was regarded as evidence of successful mating, and this day was designated as day 0 of gestation. […] All animals were killed by cervical dislocation under mild ether anesthesia on day 17 of gestation. Upon laparotomy, the fetuses were examined for external malformations and weighed; one-half of each litter was then fixed in 95% ethanol and processed for staining of the skeleton by the rapid, alizarin red-S dye method. These preparations were examined under a dissection microscope to screen for abnormalities in the axial and the appendicular skeleton. The other half of each litter was fixed in Bouin's solution and examined by freehand razor serial sectioning to screen for anomalies of the brain, face, and palate. Differences in dose-related incidence of malformations and resorptions were assessed by computing percentages of affected conceptuses among total implantation sites. The groups were compared statistically by a method based on Student's t-tests of arcs in square root transformed percentages. Values at 0.05 probability level were considered significant. The median effective dose was calculated by logarithmic curve fitting of the dose-response data.

[7] = target: T3, chimeric RXRα receptor (Homo sapiens, UniProt P19793); assay: Cationic Liposome Mediated Transfection Assay (ERE-CAT reporter in HeLa cells), RXRα; type: cell-based; conditions: concentration giving 50% of maximum CAT activity of reference AGN 191440
T3 construct: expressed in transfected cells; host or cells: HeLa cells
T3 sequence (P19793 227-458 limits assumed): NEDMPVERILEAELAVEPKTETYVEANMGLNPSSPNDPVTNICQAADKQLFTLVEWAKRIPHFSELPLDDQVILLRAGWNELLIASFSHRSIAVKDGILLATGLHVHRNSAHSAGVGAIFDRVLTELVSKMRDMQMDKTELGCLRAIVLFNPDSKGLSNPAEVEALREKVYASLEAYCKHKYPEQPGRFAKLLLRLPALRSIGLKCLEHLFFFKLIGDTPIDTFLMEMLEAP

[8] = target: T4, chimeric RARα receptor (Homo sapiens, UniProt P10276); assay: Cationic Liposome Mediated Transfection Assay (ERE-CAT reporter in HeLa cells), RARα
T4 sequence (P10276 183-417 limits assumed): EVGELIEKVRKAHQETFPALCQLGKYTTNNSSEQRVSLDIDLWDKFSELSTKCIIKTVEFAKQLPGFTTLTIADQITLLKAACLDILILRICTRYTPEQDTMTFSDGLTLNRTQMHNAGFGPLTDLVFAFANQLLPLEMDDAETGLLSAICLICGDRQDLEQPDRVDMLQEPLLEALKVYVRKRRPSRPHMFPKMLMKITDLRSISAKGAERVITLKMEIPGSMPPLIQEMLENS

[9] = Table 3, cultures terminated 96 hours after plating, read-out: IC50, 50% inhibition of chondrogenesis
[10] = single oral dose 1 mg/kg on day 11 of gestation
[11] = single oral dose 10 mg/kg on day 11 of gestation
[12] = single oral dose 100 mg/kg on day 11 of gestation
[13] = single oral dose 0.01 mg/kg on day 11 of gestation
[14] = single oral dose 0.1 mg/kg on day 11 of gestation

SMILES: C/C(=C\C=C\c1occc1C(=O)O)c1cc2c(cc1C)C(C)(C)CCC2(C)C [Compound 2]
EC50 [7]: 1060 nM

SMILES: C/C(=C/C=C/c1occc1C(=O)O)c1cc2c(cc1C)C(C)(C)CCC2(C)C [Compound 3]
EC50 [7]: 1310 nM

SMILES: C/C(=C\c1ccc(C(=O)O)cc1)c1ccc2c(c1)C(C)(C)CCC2(C)C [Compound 7, reference compound]
IC50 [5, 9]: 0.003 µg/mL (≈ 0.00861 µM)
IC50 ([5]; text b179, read-out: IC50, inhibition of chondrogenesis (unit inferred)): 0.003 µg/mL (≈ 0.00861 µM)
teratogenicity (in words) [6]: much more teratogenic than Compound 1
# Litters Normal [6, 13]: 2
% Cleft Palate [6, 13]: 29%
% Limb Defects [6, 13]: 20%
% Resorbed [6, 13]: 3%
# Litters Normal [6, 14]: 0
% Cleft Palate [6, 14]: 100%
% Limb Defects [6, 14]: 100%
% Resorbed [6, 14]: 30%
# Litters Normal [6, 10]: 0
% Resorbed [6, 10]: 100%
# Litters Normal [6, 11]: 0
% Resorbed [6, 11]: 100%
EC50 [7]: > 10000 nM

Compounds with a lower EC50 [7], results first:

EC50 [2]: 3350 nM
EC50 [4]: 1070 nM
IC50 [5, 9]: 19 µg/mL (≈ 51.6 µM)
IC50 ([5]; text b179, read-out: IC50, inhibition of chondrogenesis): 19 µg/mL (≈ 51.6 µM)
EC50 [7]: 67 nM
SMILES: C/C(=C\c1cc(C(=O)O)cs1)c1cc2c(cc1C)C(C)(C)CCC2(C)C [Compound 1, 2-[(E)-2-(5,6,7,8-Tetrahydro-3,5,5,8,8-pentamethylnaphthalen-2-yl)propen-1-yl]thiophene-4-carboxylic Acid]
presence in maternal plasma and embryo (in words) [1]: present in substantial concentration in the maternal plasma and in the embryo
inhibition of 3H-thymidine incorporation in sebocytes (in words) [3]: effective retinoid
times less teratogenic than Compound 7 in the chondrogenesis assay ([5]; ratio of IC50 values, versus Compound 7): approximately 6.3×10^4 times
teratogenicity (in words) ([6]; listed as AGN 191701): practically not teratogenic; also recorded: very little teratogenic effect
# Litters Normal [6, 10]: 1
% Cleft Palate [6, 10]: 0%
% Limb Defects [6, 10]: 0%
% Resorbed [6, 10]: 18%
# Litters Normal [6, 11]: 3
% Cleft Palate [6, 11]: 0%
% Limb Defects [6, 11]: 0%
% Resorbed [6, 11]: 14%
# Litters Normal [6, 12]: 2
% Cleft Palate [6, 12]: 19%
% Limb Defects [6, 12]: 22%
% Resorbed [6, 12]: 2%

EC50 [2]: > 10000 nM
EC50 [8]: > 10000 nM
EC50 [4]: > 10000 nM
EC50 [7]: 516 nM
SMILES: C/C(=C\c1ccc(C(=O)O)o1)c1cc2c(cc1C)C(C)(C)CCC2(C)C [Compound 4]

EC50 [7]: 139 nM
SMILES: C/C(=C\C=C\C1C[C@H]1C(=O)O)c1cc2c(cc1C)C(C)(C)CCC2(C)C (stereo partly drawn) [Compound 5, Cis-[2-[4-Methyl-4-(3,5,5,8,8,-pentamethyl-5,6,7,8-tetrahydronapthalen)-2-yl]-1E,3E-butadien-1-yl] 1-Cyclopropane Carboxylic Acid]
